Measurements reported in patent publication US10287266B2, “Compounds and compositions for inhibiting the activity of SHP2” (NOVARTIS AG, priority 2015, dated 2019).

Biological target: T1, SHP2 (Homo sapiens, UniProt Q06124)
T1 sequence (Q06124 1-593): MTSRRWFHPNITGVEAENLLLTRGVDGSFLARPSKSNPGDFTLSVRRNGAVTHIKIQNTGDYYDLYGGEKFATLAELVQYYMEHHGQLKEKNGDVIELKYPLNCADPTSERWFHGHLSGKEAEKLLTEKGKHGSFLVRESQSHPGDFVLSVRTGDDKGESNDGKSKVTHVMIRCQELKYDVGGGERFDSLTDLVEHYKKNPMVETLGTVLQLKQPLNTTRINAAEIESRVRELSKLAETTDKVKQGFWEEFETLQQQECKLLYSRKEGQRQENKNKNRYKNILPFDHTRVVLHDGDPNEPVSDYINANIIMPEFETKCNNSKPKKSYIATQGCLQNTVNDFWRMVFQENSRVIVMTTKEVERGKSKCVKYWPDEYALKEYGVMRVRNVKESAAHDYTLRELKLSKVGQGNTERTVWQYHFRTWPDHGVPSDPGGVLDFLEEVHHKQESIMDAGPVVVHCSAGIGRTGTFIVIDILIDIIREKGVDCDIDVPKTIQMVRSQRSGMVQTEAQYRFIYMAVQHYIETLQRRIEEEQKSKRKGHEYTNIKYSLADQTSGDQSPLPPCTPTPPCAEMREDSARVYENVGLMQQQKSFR
Test: SHP2 Allosteric Inhibition Assay
Format: biochemical
Settings: 0.5 nM SHP2 activated with 0.5 μM peptide IRS1_pY1172(dPEG8)pY1222; surrogate substrate DiFMUP, prompt fluorescence, 25° C.
Source text: SHP2 Allosteric Inhibition Assay
SHP2 is allosterically activated through binding of bis-tyrosyl-phorphorylated peptides to its Src Homology 2 (SH2) domains. The latter activation step leads to the release of the auto-inhibitory interface of SHP2, which in turn renders the SHP2 protein tyrosine phosphatase (PTP) active and available for substrate recognition and reaction catalysis. The catalytic activity of SHP2 was monitored using the surrogate substrate DiFMUP in a prompt fluorescence assay format.
After 30-60 minutes incubation at 25° C., the surrogate substrate DiFMUP (Invitrogen, cat# D6567) was added to the reaction and incubated at 25° C. for 30 minutes. […] The inhibitor dose response curves were analyzed using normalized IC50 regression curve fitting with control based normalization.

SMILES | AC50 [nM]
C[C@@H]1OCC2(CCN(c3cnc(Sc4ccnc(F)c4)cn3)CC2)[C@@H]1N [Example 114] | 120
C[C@@H]1OCC2(CCN(c3cnc(Sc4ccnc(N)c4Cl)cn3)CC2)[C@@H]1N [Example 115] | 24.7
C[C@@H]1OCC2(CCN(c3cnc(Sc4cccc(CO)c4)cn3)CC2)[C@@H]1N [Example 117] | 45.1
C[C@@H]1OCC2(CCN(c3cnc(Sc4cccc(O)c4)cn3)CC2)[C@@H]1N [Example 118] | 57
CC(=O)c1cccc(Sc2cnc(N3CCC4(CCC[C@H]4N)CC3)cn2)c1 [Example 119] | 138
Cc1ccccc1Sc1cnc(N2CCC3(CCC[C@H]3N)CC2)cn1 [Example 121] | 44.9
C[C@@H]1OCC2(CCN(c3cnc(Sc4ccnc(C(F)(F)F)c4)cn3)CC2)[C@@H]1N [Example 122] | 18.5
Cc1cccc(Sc2cnc(N3CCC4(CCC[C@@H]4N)CC3)cn2)c1 [Example 123] | 75.8
CC(C)c1ccccc1Sc1cnc(N2CCC3(CCC[C@@H]3N)CC2)cn1 [Example 124] | 98

Next, values leading:

AC50 [nM] | SMILES
101 | CCc1ccccc1Sc1cnc(N2CCC3(CCC[C@@H]3N)CC2)cn1 [Example 125]
130 | N[C@H]1CCCC12CCN(c1cnc(Sc3ccccc3OC(F)(F)F)cn1)CC2 [Example 126]
44.9 | CC(C)(C)c1cccc(Sc2cnc(N3CCC4(CCC[C@@H]4N)CC3)cn2)c1 [Example 127]
287 | CCc1ccc(Sc2cnc(N3CCC4(CCC[C@@H]4N)CC3)cn2)cc1 [Example 128]
526 | CCc1cccc(Sc2cnc(N3CCC4(CCC[C@H]4N)CC3)cn2)c1 [Example 129]
621 | N[C@H]1CCCC12CCN(c1cnc(Sc3ccccc3)cn1)CC2 [Example 130]
1460 | CC(C)(C)c1ccccc1Sc1cnc(N2CCC3(CCC[C@@H]3N)CC2)cn1 [Example 131]
1960 | CC(C)(C)c1ccc(Sc2cnc(N3CCC4(CCC[C@@H]4N)CC3)cn2)cc1 [Example 132]
14.6 | Nc1nccc(Sc2cnc(N3CCC4(CCC(CO)[C@H]4N)CC3)cn2)c1Cl (stereo partly drawn) [Example 133]
